Assay results from patent US20220347085A1, “REPELLENT COMPOSITION AND USES” (Université Bourgogne, priority 2019, published 2022).

Key:
Assay type in all cases: in vivo
Drosophila suzukii [1] = test: Evaluation of the copulation of Drosophila suzukii; settings: 10 min observation
Protocol: 2. Evaluation of the Copulation From the films recorded for studying the courtship behavior of Drosophila suzukii, a percentage of the number of pairs copulating during the 10 minutes of observation was calculated on the basis of the composition in which the filter paper was soaked. A statistical evaluation was carried out, and different tests were performed. In particular, a Kruskal-Wallis test followed by a post-hoc Dunn's Multiple Comparison Test were carried out (GraphPad, Prism6) in order to quantify the influence, on the number of copulating individuals, of the composition in which the paper is soaked and which involves a release of volatile compounds and an odor perceived.

Drosophila suzukii [2] = test: Test in a box (repellent effect), Drosophila suzukii; settings: 2% in solvent, 1250 cm^3 box
Protocol: (§1) 2. Tests “in a Box” (Repellent Effect)
(§2) The sensitivity of the drosophilae was evaluated over a period of between 0 minutes and 24 hours, according to the conditions (see results) in closed and transparent boxes of 1250 cm^3.
(§3) An odor source, i.e. a composition comprising butyric acid or propionic acid in paraffin oil, was deposited on a filter paper at the base of a 50 mm petri dish. The petri dish is introduced into a test box and covered with a gauze Securimed M8202 sterile gauze pad) in order to prevent the flies from getting stuck on the oily odorous compound.
(§4) The concentrations used were 2%, 6% or 20% propionic acid.
(§5) A second Petri dish containing 5 to 6 grams of synthetic food used for breeding drosophilae in laboratories was placed in the test box, i.e. 6.5% maize flour, 6.5% (v/v) yeast extract, 1% (v/v) agar-agar, and 3% (v/v) of a 0.1% (v/v) antifungal solution (Tegosept (Apex)) in ethanol at 95%. This latter provides the water and/or the food which the flies needed during the test, and eliminated the possibility of an event due to dehydration of the individuals tested.
(§6) Drosophila melanogaster or suzukii were then introduced by groups into the test box, and moved there freely over time. Their behavior in the presence of a composition as mentioned above was observed and photographed (Apple iPhone 6S).

Drosophila melanogaster [3] = test: Test of the reversible effect (waking from anesthesia), Drosophila melanogaster; settings: after 10 minutes at 2%, then placed in empty device
Protocol: Test of the Reversible Effect.
The devices used were those described for the study of the anesthesia such as described in example 2 above. The application conditions for the propanoic acid or the butyric acid were similar to those of the anesthesia test described in example 2 above. The flies were brought into the presence of 2% propanoic acid or 2% butyric acid for 10 minutes. At the end of 10 minutes of observation of the anesthesia (example 2 above), the flies were removed from the device and placed into another device which was identical but “empty”, i.e. without solvent or odor (odor=2% propanoic acid in the solvent or 2% butyric acid in the solvent, respectively). For each empty device, the total number of flies introduced and observed were 20 males and 30 females previously exposed to 2% propanoic acid and removed from this anesthetizing environment, and 6 males and 7 females previously exposed to 2% butyric acid and removed from this anesthetizing environment.
The flies were considered as woken from the anesthesia when they got back up on their legs and moved in the device.
The time required for waking the flies following their anesthesia was then measured.

Drosophila melanogaster [4] = test: Test in a box (repellent effect), Drosophila melanogaster; settings: 1250 cm^3 box; for courtship and copulation in the box / survival of flies in the box: 24 hours
Protocol: as §1, §2, §3, §4, §5, §6

Bactrocera oleae = test: Courtship of male Bactrocera oleae towards females, olfactory exposure
Protocol: 1. […] Insect Behay. 2012 [6] and Menage Cindy, personal communication). Naive males were isolated in tubes, individually, upon emerging from their puparium. The females were selected to be virgin and were stored in tubes, together. These tubes were placed in an inclined manner in incubators, for which a temperature of 25° C. was kept constant. A 12 hour/12 hour day/night cycle was applied. […] Each alveolus was cylindrical, transparent and closed, and of a volume of 5.9 cm^3. FIG. 16 is a schematic representation of an alveolus of the device used. • The papers were then each soaked in […] of a composition of 2%, 4% or 5% propionic acid. A gauze (netting) made it possible to physically isolate the B. ° lea from the odor corresponding to the propionic acid. 2 pairs (one per alveolus) were observed independently. Each pair was made up of one male and one female, each originating from the tubes mentioned above. • The behavior was filmed for 10 minutes, under white light, using a Basler acA1920-155 um USB 3.0 camera. Each film was recorded (Basler Video Recording Software V1.3) and then analyzed. For each concentration of the compositions used, the number of pairs of flies was, respectively, 2, 5, 2, 2, 2 and 6, 6, 4, 4. • A negative control was carried out comprising only the solvent, i.e. paraffin oil, in order to verify the absence of an effect of the solvent on the flies.
A courtship percentage was calculated, and represents the time during which the male courts the female during the 10 minutes of observation (recording). The different steps consist in movement of the wings (rapid “buzzing” and/or vertical vibrations), face movements, lateral movements, “dances” in rapid circles and in the direction of the female (Benelli, J. Insect Beahv 2012 [6] and Ménagé Cindy, personal communication).

Compound: CCCC(=O)O [butyric acid]
- reduction of the proportion of copulation (Drosophila suzukii [1]; 0.1% in solvent): 70.55%
- proportion of copulation (Drosophila suzukii [1]; 0.5% in solvent): 3.03%
- reduction of the proportion of copulation (Drosophila suzukii [1]; 0.5% in solvent): 83.03%
- proportion of copulation (Drosophila suzukii [1]; 1% in solvent): zero
- repellent behavior (location of flies relative to odor source) (Drosophila suzukii [2]): remained away from the filter soaked in butyric acid
- anesthesia at a distance in the box (Drosophila suzukii [2]; males and females): anesthetized
- time until death in the box (Drosophila suzukii [2]; males and females): 20 h
- time required to wake up fully from the anesthesia (Drosophila melanogaster [3]; females): 4.5 min
- time required to wake up fully from the anesthesia (Drosophila melanogaster [3]; males): 6 min

Compound: CCC(=O)O [propionic acid]
- reduction of the proportion of copulation (Drosophila suzukii [1]; 0.1% in solvent): 58%
- proportion of copulation (Drosophila suzukii [1]; 0.5% in solvent): zero
- proportion of copulation (Drosophila suzukii [1]; 1% in solvent): zero
- repellent behavior (location of flies relative to odor source) (Drosophila suzukii [2]): remained preferably away from said odor
- anesthesia at a distance in the box (Drosophila suzukii [2]; males and females): anesthetized in the hour which followed
- courtship and copulation in the box (Drosophila melanogaster [4]; 2% in paraffin oil): court and copulate
- survival of flies in the box (Drosophila melanogaster [4]; 2% in paraffin oil): still alive after 24 hours
- courtship and copulation in the box (Drosophila melanogaster [4]; 6% in paraffin oil): court and copulate
- survival of flies in the box (Drosophila melanogaster [4]; 6% in paraffin oil): still alive after 24 hours
- anesthesia at a distance in the box (Drosophila melanogaster [4]; 20% in solvent): anesthetized in the test hour
- repellent behavior (location of flies relative to odor source) (Drosophila melanogaster [4]; 20% in solvent): keep away from the filter paper
- courtship of males towards females (Bactrocera oleae; 2% in solvent, flies aged 3 to 6 days, compared with solvent alone): significantly reduced
- courtship of males towards females (Bactrocera oleae; 2% in solvent, flies aged 13 to 19 days, compared with solvent alone): significantly reduced
- courtship of males towards females (Bactrocera oleae; 4% in solvent, flies aged 3 to 6 days): virtually nonexistent
- courtship of males towards females (Bactrocera oleae; 5% in solvent, flies aged 3 to 6 days): virtually nonexistent
- courtship of males towards females (Bactrocera oleae; 5% in solvent, flies aged 13 to 19 days, compared with solvent alone): significantly reduced
- time required to wake up fully from the anesthesia (Drosophila melanogaster [3]; females): 9 min
- time required to wake up fully from the anesthesia (Drosophila melanogaster [3]; males): 23 min
